From patent US20230135894A1, “MK2 DEGRADERS AND USES THEREOF” (Kymera Therapeutics, Inc., priority 2021, published 2023) come the findings set out here.

The target in test [1] is T1, MK2 (Homo sapiens, UniProt P49137). Description: MK2 degradation in human THP-1 monocytic cells (MSD, 24 h). The test is classed as cell-based. Set-up: endogenous in cells. Conditions: for Dmax: THP-1, THP-1 cells; for DC50: THP-1 cells, read-out: MK2 MSD THP-1 degradation 24 h GMean External Abs DC50. The method, then: MK2 Degradation in Human THP-1 Monoctyic Cells
(§1) The human monocytic cancer cell line THP-1 (ATCC (TIB-202)) was cultured in 96 well plates (Corning 3894) at a density of 200,000 cells per well in 100 microlitres in complete growth medium of RPMI 1640 (Gibco) pus 10% fetal Bovine Serum (Corning) and Penicillin/Streptomycin (SolarBio) at 37 degrees Celsius and 5% CO2. A serial dilution of each compound (usually 3 to 5 fold serial dilutions up to 10 separate concentration points) was added to individual wells from a 10 millimolar stock solution, at a background concentration of 0.1% DMSO and the cells were shaken at 600 rpm for 5 minutes and then were cultured for 24 hours at 37 degrees Celsius and 5% carbon dioxide. Separately, a custom MSD (MesoScaleDiscovery, L15XA-3) plate for detection of human MK2 was prepared by coating the plate with the commercial AbCam ab247272 reagent in 1×Phosphate Buffered Saline at 40 microlitres per well and incubated at 4 degrees Celsius overnight. The next day, the MSD plate was washed with 150 microlitres of Tween buffered saline, blocked with MSD blocking buffer (3% Blocker A from MSD), and washed again.
(§2) The cell plate was centrifuged at 3,200 g for 5 minutes and the supernatant was discarded and 100 microlitres of RIPA lysis buffer (containing proteinase inhibitors, Boston BioProducts BP-115D) was added and the plate was sealed and shaken on ice for 20 minutes. The plate was centrifuged as before and 70 microlitres of sample lysate was added to the MSD plates and they were shaken at room temperature for 1 hour at 600 rpm. The MSD plate was washed 3 times as before and then the primary MK2 detection antibody (Santa Cruz sc-100393) was added at a final concentration of 1 microgram per ml at 25 microlitres per well and shaken at room temperature for 1 hour at 600 rpm.
(§3) After 3 more washes, the secondary detection antibody (SULFO-Tag anti rabbit antibody R32AB-5) was added at a final concentration of 1 microgram per ml at 25 microlitres per well and shaken at room temperature for 1 hour at 600 rpm. After 3 more washes, the 1×MSD (diluted from 5× concentrate with water) reading buffer was added at 150 microlitres per well and read on the MSD instrument Meso Sector S 600.
(§4) The inhibition/degradation curves and DC50 values were plotted and calculated using XL Fit (version v5.3.1.3) using equation 201 and a 4 parameter logistic model whereby fit=(A+((B−A)/(1+((x/C)D))) where A is the Bottom and B is the Top and C is the IC50 and D is the slope and high C is the signal for the DMSO treated cells and Low C is the signal is the signal for the lysis buffer.

Test [2] deals with T1, MK2. Description: MK2 degradation in human SW1353 cells (MSD, 24 h). Details: endogenous in cells; host or cells: SW-1353 (ATCC HTB-94). Conditions: for Dmax: read-out: MK2 MSD SW 1353 24 h Dmax %; for DC50: read-out: MK2 MSD SW1353 degradation 24 h GMean External Abs DC50. Type of test: cell-based. The method, then: MK2 Degradation in Human SW1353 Cells
as §1, with “chondrocyte” for “monocytic”, “SW-1353 (ATCC(HTB-94))” for “THP-1 (ATCC (TIB-202))”, “Leibovitz's L-15 Medium” for “RPMI 1640”, “Celsius.” for “Celsius and 5% CO2.”, “Celsius.” for “Celsius and 5% carbon dioxide.”
as §2, §3, §4

T1 sequence (P49137 whole entry): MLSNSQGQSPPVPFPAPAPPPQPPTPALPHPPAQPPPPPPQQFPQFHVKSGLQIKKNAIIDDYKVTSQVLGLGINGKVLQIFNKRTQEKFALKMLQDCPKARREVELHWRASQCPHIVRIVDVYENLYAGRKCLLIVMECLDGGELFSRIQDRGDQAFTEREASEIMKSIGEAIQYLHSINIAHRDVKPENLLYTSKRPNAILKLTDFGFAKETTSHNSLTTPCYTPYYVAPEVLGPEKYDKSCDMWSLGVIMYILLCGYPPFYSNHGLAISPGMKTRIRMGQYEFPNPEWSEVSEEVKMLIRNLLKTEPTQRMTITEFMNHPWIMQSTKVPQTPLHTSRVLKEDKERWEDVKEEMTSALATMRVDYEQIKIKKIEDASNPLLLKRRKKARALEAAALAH

As for `Cn1c(=O)n(C2CCC(=O)NC2=O)c2cccc(CCCN3CCN(c4ccc(F)c(-c5cc(-c6cc7c([nH]6)CCNC7=O)ccn5)c4)CC3)c21` (stereo not drawn) [Compound I-133], the greatest degradation seen (Dmax) in test [1] and in test [2] was under 50% throughout. The DC50 in test [1] and in test [2] was over 100 nM in each case.
`Cn1c(=O)n(C2CCC(=O)NC2=O)c2cccc(CCCCCN3CCN(c4ccc(F)c(-c5cc(-c6cc7c([nH]6)CCNC7=O)ccn5)c4)CC3)c21` (stereo not drawn) [Compound I-134]: the Dmax in test [1] and in test [2] was under 50% in each case. In addition, the half-maximal degradation concentration (DC50) in test [1] and in test [2] was over 100 nM each time.
With `Cn1c(=O)n(C2CCC(=O)NC2=O)c2cccc(CCCCCCCN3CCN(c4ccc(F)c(-c5cc(-c6cc7c([nH]6)CCNC7=O)ccn5)c4)CC3)c21` (stereo not drawn) [Compound I-135], in test [1], the greatest degradation seen (Dmax) (as a rule, the greatest extent of degradation seen) was under 50% and the 50% degradation concentration (DC50) (as a rule, the concentration giving 50% degradation) is over 100 nM. In test [2], the greatest degradation seen (Dmax) is under 50% and the 50% degradation concentration (DC50) was over 100 nM.
Take `Cn1c(=O)n(C2CCC(=O)NC2=O)c2cccc(C3CCN(CC4CCN(c5ccc(-c6cc(-c7cc8c([nH]7)CCNC8=O)ccn6)c(F)c5)CC4)CC3)c21` (stereo not drawn) [Compound I-137]: in test [1], the greatest degradation seen (Dmax) is over 75% and the 50% degradation concentration (DC50) fell in the range of 1 to 10 nM. Also, in test [2], the Dmax was over 75% and the DC50 was under 1 nM.
Regarding `Cn1c(=O)n(C2CCC(=O)NC2=O)c2cccc(N3CCC(CN4CCN(c5ccc(-c6cc(-c7cc8c([nH]7)CCNC8=O)ccn6)cn5)CC4)CC3)c21` (stereo not drawn) [Compound I-138], in test [1], the Dmax is over 75% and the DC50 is under 1 nM. Also, in test [2], the maximal degradation (Dmax) was over 75% and the DC50 was under 1 nM.
On to `Cn1c(=O)n(C2CCC(=O)NC2=O)c2cccc(N3CCC(CCN4CCN(c5ccc(-c6cc(-c7cc8c([nH]7)CCNC8=O)ccn6)cc5)CC4)CC3)c21` (stereo not drawn) [Compound I-139], for which, in test [1], the Dmax is over 75% and the DC50 is under 1 nM. Besides, in test [2], the greatest degradation seen (Dmax) was over 75% and the 50% degradation concentration (DC50) fell in the range of 1 to 10 nM.
With `Cn1c(=O)n(C2CCC(=O)NC2=O)c2ccc(N3CCC(CN4CCN(c5ccc(-c6cc(-c7cc8c([nH]7)CCNC8=O)ccn6)cn5)CC4)CC3)cc21` (stereo not drawn) [Compound I-141], in test [1], the greatest degradation seen (Dmax) is over 75% and the DC50 is under 1 nM. In test [2], the Dmax is over 75% and the 50% degradation concentration (DC50) was under 1 nM.
For `Cn1c(=O)n(C2CCC(=O)NC2=O)c2ccc(N3CCC(CN4CCN(c5ccc(-c6cc(-c7cc8c([nH]7)CCNC8=O)ccn6)cc5)CC4)CC3)cc21` (stereo not drawn) [Compound I-143], the Dmax in test [1] and in test [2] was over 75% in each case. Moreover, the half-maximal degradation concentration (DC50) in test [1] and in test [2] was under 1 nM in each case.
On to `Cn1c(=O)n(C2CCC(=O)NC2=O)c2cccc(C3CCN(CC4CCN(c5ccc(F)c(-c6cc(-c7cc8c([nH]7)CCNC8=O)ccn6)c5)CC4)CC3)c21` (stereo not drawn) [Compound I-146], for which, in test [1], the Dmax was under 50% and the half-maximal degradation concentration (DC50) is over 100 nM. In addition, in test [2], the Dmax is under 50% and the 50% degradation concentration (DC50) was over 100 nM.
Take `CN1CC2(CNC(=O)c3c2[nH]c2c3CCc3cnc(-c4ccc(N5CCN(CCCCc6cccc7c6n(C)c(=O)n7C6CCC(=O)NC6=O)CC5)cc4F)cc3-2)C1` (stereo not drawn) [Compound I-154]: in test [1], the greatest degradation seen (Dmax) was over 75% and the half-maximal degradation concentration (DC50) lay in the range of 10 to 100 nM. Besides, in test [2], the greatest degradation seen (Dmax) was over 75% and the 50% degradation concentration (DC50) lay in the range of 10 to 100 nM.
Turning to `CN1CC2(CNC(=O)c3c2[nH]c2c3CCc3cnc(-c4cc(N5CCN(CCCCc6cccc7c6n(C)c(=O)n7C6CCC(=O)NC6=O)CC5)ccc4F)cc3-2)C1` (stereo not drawn) [Compound I-155], in test [1], the Dmax was under 50% and the DC50 is over 100 nM. Further, in test [2], the greatest degradation seen (Dmax) is under 50% and the half-maximal degradation concentration (DC50) was over 100 nM.
On to `C[C@@H]1CNc2c(sc3ccc4nc(-c5cncc(N6CCN(CCCCCc7cccc8c7n(C)c(=O)n8C7CCC(=O)NC7=O)CC6)c5)ccc4c23)C(=O)N1` (stereo partly drawn) [Compound I-156], for which, in test [1], the maximal degradation (Dmax) is over 75% and the DC50 was under 1 nM. Besides, in test [2], the Dmax was over 75% and the DC50 was under 1 nM.
Regarding `C[C@@H]1CNc2c(sc3ccc4nc(-c5cncc(N6CCN(CCCc7ccc8c(c7)n(C)c(=O)n8C7CCC(=O)NC7=O)CC6)c5)ccc4c23)C(=O)N1` (stereo partly drawn) [Compound I-157], in test [1], the greatest degradation seen (Dmax) is over 75% and the DC50 was under 1 nM. Moreover, in test [2], the Dmax is over 75% and the DC50 was under 1 nM.
For the compound `C[C@@H]1CNc2c(sc3ccc4nc(-c5cncc(N6CCN(CCCCCCCc7cccc8c7n(C)c(=O)n8C7CCC(=O)NC7=O)CC6)c5)ccc4c23)C(=O)N1` (stereo partly drawn) [Compound I-158], the Dmax in test [1] and in test [2] was over 75% throughout. The DC50 in test [1] is under 1 nM; in test [2] it was 1 to 10 nM.
Regarding `C[C@@H]1CNc2c(sc3ccc4nc(-c5cncc(N6CCN(CC7CCN(c8cccc9c8n(C)c(=O)n9C8CCC(=O)NC8=O)CC7)CC6)c5)ccc4c23)C(=O)N1` (stereo partly drawn) [Compound I-160], the Dmax in test [1] and in test [2] was over 75% throughout. The DC50 in test [1] and in test [2] was under 1 nM each time.
Regarding `C[C@@H]1CNc2c(sc3ccc4nc(-c5cncc(N6CCN(CC7CCN(c8ccc9c(c8)n(C)c(=O)n9C8CCC(=O)NC8=O)CC7)CC6)c5)ccc4c23)C(=O)N1` (stereo partly drawn) [Compound I-161], in test [1], the greatest degradation seen (Dmax) is over 75% and the DC50 was under 1 nM. In addition, in test [2], the Dmax was over 75% and the 50% degradation concentration (DC50) was under 1 nM.
As for `C[C@@H]1CNc2c(sc3ccc4nc(-c5cncc(C6CCN(CC7CCN(c8ccc9c(c8)n(C)c(=O)n9C8CCC(=O)NC8=O)CC7)CC6)c5)ccc4c23)C(=O)N1` (stereo partly drawn) [Compound I-165], in test [1], the Dmax was over 75% and the DC50 was under 1 nM. In test [2], the maximal degradation (Dmax) was over 75% and the DC50 is under 1 nM.
On to `Cn1c(=O)n(C2CCC(=O)NC2=O)c2cccc(CCCCN3CC4(CCN(c5ccc6c(c5)Cn5cc(-c7ccc(F)cc7)cc5-c5nccn5-6)C4)C3)c21` (stereo not drawn) [Compound I-167], for which, in test [1], the maximal degradation (Dmax) is under 50% and the DC50 was over 100 nM. In test [2], the greatest degradation seen (Dmax) was under 50% and the 50% degradation concentration (DC50) was over 100 nM.
Turning to `Cn1c(=O)n(C2CCC(=O)NC2=O)c2ccc(CCCCCCN3CC4(CCN(c5ccc6c(c5)Cn5cc(-c7ccc(F)cc7)cc5-c5nccn5-6)C4)C3)cc21` (stereo not drawn) [Compound I-168], in test [1], the Dmax is under 50% and the DC50 is over 100 nM. Further, in test [2], the Dmax is under 50% and the half-maximal degradation concentration (DC50) was over 100 nM.
Take `C[C@@H]1CNc2c(sc3ccc4nc(-c5ccc(N6CCN(CCCCCCCCc7cccc8c7n(C)c(=O)n8C7CCC(=O)NC7=O)CC6)cc5)ccc4c23)C(=O)N1` (stereo partly drawn) [Compound I-170]: in test [1], the Dmax is over 75% and the DC50 lay within 1 to 10 nM. In test [2], the Dmax was over 75% and the DC50 was 1 to 10 nM.
For `C[C@@H]1CNc2c(sc3ccc4nc(-c5ccc(N6CCN(CCCCCc7cccc8c7n(C)c(=O)n8C7CCC(=O)NC7=O)CC6)cc5)ccc4c23)C(=O)N1` (stereo partly drawn) [Compound I-171], the Dmax in test [1] was 50 to 75%; in test [2], over 75%. In addition, the 50% degradation concentration (DC50) in test [1] and in test [2] was 1 to 10 nM in each case.
